Assay results reported in patent US9585875B2, “TRPM8 antagonists” (Dompé S.P.A., priority 2011, dated 2017).

Assays:
[1] = Pharmacokinetic profile in rat; type: in vivo; conditions: plasma; for half-life: iv, read-out: t1/2 i.v. rat
TRPV1 = TRPV1 (Homo sapiens, UniProt Q8NER1); test: Calcium influx counterassay, agonist capsaicin; type: cell-based; conditions: 0.1 μM capsaicin = 100%, read-out: Normalized % inhibition (TRPV1); for inhibition at 1 µM: Test Conc. 1 uM; for inhibition at 10 µM: Test Conc. 10 uM
Chain of TRPV1 (Q8NER1 whole entry, species assumed): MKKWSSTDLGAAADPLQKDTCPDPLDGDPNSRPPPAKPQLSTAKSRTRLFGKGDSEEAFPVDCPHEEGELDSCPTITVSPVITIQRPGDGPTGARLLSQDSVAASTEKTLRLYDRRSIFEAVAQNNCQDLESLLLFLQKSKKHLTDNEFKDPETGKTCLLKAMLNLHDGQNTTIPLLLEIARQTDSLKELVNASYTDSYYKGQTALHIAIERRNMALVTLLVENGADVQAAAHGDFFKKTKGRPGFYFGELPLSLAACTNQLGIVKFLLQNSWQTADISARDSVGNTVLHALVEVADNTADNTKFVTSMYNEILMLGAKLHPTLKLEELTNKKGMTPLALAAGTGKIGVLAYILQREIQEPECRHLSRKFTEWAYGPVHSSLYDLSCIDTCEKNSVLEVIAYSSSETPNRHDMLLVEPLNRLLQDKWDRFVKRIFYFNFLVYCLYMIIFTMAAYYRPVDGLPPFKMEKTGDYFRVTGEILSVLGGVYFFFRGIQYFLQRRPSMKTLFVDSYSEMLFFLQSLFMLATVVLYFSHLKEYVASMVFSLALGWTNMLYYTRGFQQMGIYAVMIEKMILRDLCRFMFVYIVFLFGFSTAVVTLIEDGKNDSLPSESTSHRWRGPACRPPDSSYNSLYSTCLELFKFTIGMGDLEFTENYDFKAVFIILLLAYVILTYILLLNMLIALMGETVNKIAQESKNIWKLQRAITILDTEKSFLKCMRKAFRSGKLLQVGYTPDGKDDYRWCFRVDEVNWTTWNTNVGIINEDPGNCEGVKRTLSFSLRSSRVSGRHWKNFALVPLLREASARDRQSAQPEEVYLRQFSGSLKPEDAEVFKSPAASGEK
Experimental: In order to address more specifically the potential selectivity issues, a counterassay was carried out for 10, 45 and 118 against TRPV1 and TRPV4 ion channels, both involved in the nociception (Jhaveri M D, et al 2005. Eur. J. Neurosci. 22 (2): 361-70, Brierley S M et al, 2008, Gastroenterology. 2008 June; 134(7):2059-69. ). The ability of each test compound to act as an antagonist of TRPV1 was evaluated with a calcium influx assay.

CYP 2D6 = CYP 2D6 (Homo sapiens, UniProt P10635); test: CYP inhibition; type: in vitro ADME
Chain of CYP 2D6 (P10635 whole entry): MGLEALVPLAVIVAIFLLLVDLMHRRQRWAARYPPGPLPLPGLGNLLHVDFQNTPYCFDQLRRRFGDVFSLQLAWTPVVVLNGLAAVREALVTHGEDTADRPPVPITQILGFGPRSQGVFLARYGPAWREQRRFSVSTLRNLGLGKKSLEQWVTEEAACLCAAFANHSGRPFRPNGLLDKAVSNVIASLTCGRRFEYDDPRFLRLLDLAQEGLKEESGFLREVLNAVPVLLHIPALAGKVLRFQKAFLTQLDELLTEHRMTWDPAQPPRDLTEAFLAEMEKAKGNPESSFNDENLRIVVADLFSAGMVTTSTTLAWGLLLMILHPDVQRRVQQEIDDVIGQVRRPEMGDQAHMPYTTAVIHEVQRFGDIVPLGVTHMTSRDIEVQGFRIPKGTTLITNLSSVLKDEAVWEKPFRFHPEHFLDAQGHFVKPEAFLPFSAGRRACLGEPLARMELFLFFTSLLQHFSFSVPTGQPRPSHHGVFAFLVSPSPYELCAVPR

TRPM8 = TRPM8 (Homo sapiens, UniProt Q7Z2W7)
Excerpt: Values were considered significant if the test compound mean was three or more standard deviations away from the positive control agonist mean.

TRPV4 = TRPV4 (Homo sapiens, UniProt Q9HBA0); test: Calcium influx counterassay, agonist GSK1016790A; type: cell-based; conditions: 10 μM GSK1016790A = 100%, read-out: Normalized % inhibition (TRPV4); for inhibition at 1 µM: Test Conc. 1 uM; for inhibition at 10 µM: Test Conc. 10 uM
Chain of TRPV4 (Q9HBA0 whole entry, species assumed): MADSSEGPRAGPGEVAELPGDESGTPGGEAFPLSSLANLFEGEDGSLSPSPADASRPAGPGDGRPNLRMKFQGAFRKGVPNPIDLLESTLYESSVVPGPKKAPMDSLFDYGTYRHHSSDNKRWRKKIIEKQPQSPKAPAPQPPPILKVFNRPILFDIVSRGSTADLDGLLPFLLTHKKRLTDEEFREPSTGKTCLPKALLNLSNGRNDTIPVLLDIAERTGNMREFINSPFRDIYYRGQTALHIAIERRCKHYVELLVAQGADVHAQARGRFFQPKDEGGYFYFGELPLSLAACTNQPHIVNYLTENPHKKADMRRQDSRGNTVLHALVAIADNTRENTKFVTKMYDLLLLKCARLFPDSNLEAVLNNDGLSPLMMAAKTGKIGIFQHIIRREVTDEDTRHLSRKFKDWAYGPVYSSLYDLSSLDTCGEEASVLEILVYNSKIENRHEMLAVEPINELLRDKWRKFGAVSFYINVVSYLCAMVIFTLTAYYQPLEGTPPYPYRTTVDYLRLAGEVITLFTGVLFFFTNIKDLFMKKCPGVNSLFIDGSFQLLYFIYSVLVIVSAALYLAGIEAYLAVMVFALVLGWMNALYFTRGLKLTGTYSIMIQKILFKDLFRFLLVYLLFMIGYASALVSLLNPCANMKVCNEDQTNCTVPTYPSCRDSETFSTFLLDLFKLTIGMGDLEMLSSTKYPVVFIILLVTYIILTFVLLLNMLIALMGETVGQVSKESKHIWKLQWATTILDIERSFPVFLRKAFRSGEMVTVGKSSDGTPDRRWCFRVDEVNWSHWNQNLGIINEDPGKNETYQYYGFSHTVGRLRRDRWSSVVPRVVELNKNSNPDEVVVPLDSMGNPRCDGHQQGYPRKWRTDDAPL
Experimental: In parallel, the ability of each test compound to act as an antagonist of TRPV4 was evaluated with a calcium influx assay.

[2] = molecular target: T1, human Adrenergic α2A Receptor (Homo sapiens, UniProt P08913); test: Radioligand binding assay; conditions: read-out: percentage of control binding value (% B)
T1 construct: expressed in transfected cells; host or cells: HEK293 or CHO
Experimental: (§1) The objective of this study was to evaluate the in vitro effects of compounds 10 and 45 on cloned human GPCRs (G-protein coupled receptors) expressed in HEK293 or CHO cells using radioligand binding assays (compound concentration=10 μM).
(§2) Three replicates were performed for each experiment.
(§3) For each assay a concentration-response curve of the appropriate reference compound was performed in each experiment. The sample radioactivity content was measured after the addition of the scintillation cocktail Microscint 20 (PerkinElmer), by a microplate scintillation Beta-counter TopCount NXT (PerkinElmer). The atomic disintegrations per minutes evaluated with the beta counter were about 15 times higher than those found using the gamma counter. Data are expressed as percentage of control binding value (% B) and test compound inhibition was considered significant when % B was <75% at 10 μM.

[3] = molecular target: T2, human Serotoninergic 5-HT1A Receptor (Homo sapiens, UniProt P08908); test: Radioligand binding assay; conditions: read-out: percentage of control binding value (% B)
T2 construct: expressed in transfected cells; host or cells: HEK293 or CHO
Experimental: as §1, §2, §3

[4] = molecular target: T3, human Dopamine D3 Receptor (Homo sapiens, UniProt P35462); test: Radioligand binding assay; conditions: read-out: percentage of control binding value (% B)
T3 construct: expressed in transfected cells; host or cells: HEK293 or CHO
T3 sequence (P35462 whole entry): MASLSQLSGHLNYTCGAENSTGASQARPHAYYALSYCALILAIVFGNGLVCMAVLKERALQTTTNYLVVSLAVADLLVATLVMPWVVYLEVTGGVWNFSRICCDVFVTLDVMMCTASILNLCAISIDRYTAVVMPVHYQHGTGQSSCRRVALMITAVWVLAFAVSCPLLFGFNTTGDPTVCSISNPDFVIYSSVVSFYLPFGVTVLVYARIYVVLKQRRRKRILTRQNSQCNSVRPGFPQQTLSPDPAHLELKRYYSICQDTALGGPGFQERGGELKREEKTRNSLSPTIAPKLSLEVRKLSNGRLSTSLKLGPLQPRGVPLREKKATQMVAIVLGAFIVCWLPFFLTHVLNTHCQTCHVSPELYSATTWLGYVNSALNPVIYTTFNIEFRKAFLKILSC
Experimental: as §1, §2, §3

[5] = molecular target: T4, human Muscarinic M2 Receptor (Homo sapiens, UniProt P08172); test: Radioligand binding assay; conditions: read-out: percentage of control binding value (% B)
T4 construct: expressed in transfected cells; host or cells: HEK293 or CHO
Experimental: as §1, §2, §3

[6] = molecular target: T5, human Muscarinic M3 Receptor (Homo sapiens, UniProt P20309); test: Radioligand binding assay; conditions: read-out: percentage of control binding value (% B)
T5 construct: expressed in transfected cells; host or cells: HEK293 or CHO
Experimental: as §1, §2, §3

[7] = molecular target: T6, human Histamine H1 Receptor (Homo sapiens, UniProt P35367); test: Radioligand binding assay; conditions: read-out: percentage of control binding value (% B)
T6 construct: expressed in transfected cells; host or cells: HEK293 or CHO
T6 sequence (P35367 whole entry): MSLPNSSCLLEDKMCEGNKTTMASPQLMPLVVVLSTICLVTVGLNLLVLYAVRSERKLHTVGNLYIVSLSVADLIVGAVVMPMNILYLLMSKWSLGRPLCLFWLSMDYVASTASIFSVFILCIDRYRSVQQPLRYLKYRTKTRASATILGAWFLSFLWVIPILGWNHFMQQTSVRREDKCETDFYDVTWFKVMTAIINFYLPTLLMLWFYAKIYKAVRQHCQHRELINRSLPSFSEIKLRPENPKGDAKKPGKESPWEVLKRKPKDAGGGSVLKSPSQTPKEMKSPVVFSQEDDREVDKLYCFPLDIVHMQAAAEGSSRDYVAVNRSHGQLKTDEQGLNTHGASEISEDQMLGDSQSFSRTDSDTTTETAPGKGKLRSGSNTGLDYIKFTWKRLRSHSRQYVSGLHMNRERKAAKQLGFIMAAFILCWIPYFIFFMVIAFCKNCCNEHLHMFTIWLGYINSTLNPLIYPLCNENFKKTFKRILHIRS
Experimental: as §1, §2, §3

[8] = molecular target: T7, human Adrenergic β1 Receptor (Homo sapiens, UniProt P08588); test: Radioligand binding assay; conditions: read-out: percentage of control binding value (% B)
T7 construct: expressed in transfected cells; host or cells: HEK293 or CHO
T7 sequence (P08588 whole entry): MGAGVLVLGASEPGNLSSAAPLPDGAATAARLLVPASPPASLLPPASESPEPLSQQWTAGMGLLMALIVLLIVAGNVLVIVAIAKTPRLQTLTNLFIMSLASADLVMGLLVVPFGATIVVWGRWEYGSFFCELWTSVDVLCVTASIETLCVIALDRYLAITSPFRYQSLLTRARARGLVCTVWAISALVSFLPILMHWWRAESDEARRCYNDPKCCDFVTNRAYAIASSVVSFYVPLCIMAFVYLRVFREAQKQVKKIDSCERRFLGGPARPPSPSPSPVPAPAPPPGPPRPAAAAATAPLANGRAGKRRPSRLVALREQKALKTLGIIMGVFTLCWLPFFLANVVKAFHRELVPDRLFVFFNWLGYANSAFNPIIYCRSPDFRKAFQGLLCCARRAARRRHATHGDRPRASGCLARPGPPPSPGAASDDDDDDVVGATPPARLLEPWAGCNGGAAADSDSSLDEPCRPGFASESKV
Experimental: as §1, §2, §3

[9] = molecular target: T8, human Adrenergic β2 Receptor (Homo sapiens, UniProt P07550); test: Radioligand binding assay; conditions: read-out: percentage of control binding value (% B)
T8 construct: expressed in transfected cells; host or cells: HEK293 or CHO
T8 sequence (P07550 whole entry): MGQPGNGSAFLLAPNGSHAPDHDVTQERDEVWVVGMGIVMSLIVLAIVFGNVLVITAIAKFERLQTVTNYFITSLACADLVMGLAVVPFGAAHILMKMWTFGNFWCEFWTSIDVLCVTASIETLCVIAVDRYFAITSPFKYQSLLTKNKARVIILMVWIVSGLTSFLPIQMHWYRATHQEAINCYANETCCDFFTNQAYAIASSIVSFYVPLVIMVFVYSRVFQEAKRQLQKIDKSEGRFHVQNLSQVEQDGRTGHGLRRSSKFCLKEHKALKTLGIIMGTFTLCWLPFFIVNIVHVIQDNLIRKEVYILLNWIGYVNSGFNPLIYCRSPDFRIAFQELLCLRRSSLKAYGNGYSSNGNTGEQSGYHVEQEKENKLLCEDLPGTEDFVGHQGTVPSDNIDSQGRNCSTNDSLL
Experimental: as §1, §2, §3

[10] = molecular target: T9, human Dopamine D2S Receptor (Homo sapiens, UniProt P14416); test: Radioligand binding assay; conditions: read-out: percentage of control binding value (% B)
T9 construct: expressed in transfected cells; host or cells: HEK293 or CHO
T9 sequence (P14416 1-414 isoform P14416-2): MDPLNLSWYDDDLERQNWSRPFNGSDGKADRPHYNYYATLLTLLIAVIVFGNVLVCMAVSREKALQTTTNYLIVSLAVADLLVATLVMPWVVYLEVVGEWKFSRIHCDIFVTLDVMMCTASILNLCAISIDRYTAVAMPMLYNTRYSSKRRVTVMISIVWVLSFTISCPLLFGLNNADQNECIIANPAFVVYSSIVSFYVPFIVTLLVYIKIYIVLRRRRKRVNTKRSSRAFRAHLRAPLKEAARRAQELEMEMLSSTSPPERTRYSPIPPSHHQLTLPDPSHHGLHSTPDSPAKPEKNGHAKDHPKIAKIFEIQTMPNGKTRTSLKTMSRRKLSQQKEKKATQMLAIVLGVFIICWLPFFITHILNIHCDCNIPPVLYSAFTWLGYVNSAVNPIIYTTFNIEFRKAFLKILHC
Experimental: as §1, §2, §3

[11] = molecular target: T10, human Bradykinin B1 Receptor (Homo sapiens, UniProt P46663); test: Radioligand binding assay; conditions: read-out: percentage of control binding value (% B)
T10 construct: expressed in transfected cells; host or cells: HEK293 or CHO
T10 sequence (P46663 whole entry): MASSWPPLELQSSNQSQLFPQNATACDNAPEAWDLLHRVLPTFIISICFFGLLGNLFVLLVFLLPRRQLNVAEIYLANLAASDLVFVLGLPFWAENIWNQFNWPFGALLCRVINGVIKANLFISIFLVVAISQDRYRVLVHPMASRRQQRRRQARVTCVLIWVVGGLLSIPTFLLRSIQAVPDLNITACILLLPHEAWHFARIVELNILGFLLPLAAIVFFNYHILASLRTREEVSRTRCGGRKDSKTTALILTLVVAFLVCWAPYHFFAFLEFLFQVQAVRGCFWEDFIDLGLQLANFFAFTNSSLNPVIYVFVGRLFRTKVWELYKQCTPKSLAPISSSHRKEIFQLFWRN
Experimental: as §1, §2, §3

[12] = molecular target: T11, human Cannabinoid CB2 Receptor (Homo sapiens, UniProt P34972); test: Radioligand binding assay; conditions: read-out: percentage of control binding value (% B)
T11 construct: expressed in transfected cells; host or cells: HEK293 or CHO
Experimental: as §1, §2, §3

[13] = molecular target: T12, human Histamine H2 Receptor (Homo sapiens, UniProt P25021); test: Radioligand binding assay; conditions: read-out: percentage of control binding value (% B)
T12 construct: expressed in transfected cells; host or cells: HEK293 or CHO
Experimental: as §1, §2, §3

[14] = molecular target: T13, human Adrenergic α1A Receptor (Homo sapiens, UniProt P35348); test: Radioligand binding assay; conditions: read-out: percentage of control binding value (% B)
T13 construct: expressed in transfected cells; host or cells: HEK293 or CHO
Experimental: as §1, §2, §3

Plasma Protein Binding [15] = type: in vitro ADME; conditions: human
Log D = type: physicochemical
CYP 3A4 = CYP 3A4 (Homo sapiens, UniProt P08684); test: CYP inhibition; type: in vitro ADME
CYP 2C9 = CYP 2C9 (Homo sapiens, UniProt P11712); test: CYP inhibition; type: in vitro ADME
Plasma Protein Binding [16] = type: in vitro ADME; conditions: rat

Compound	half-life [1] [h]	inhibition at 1 µM (TRPV1) [%]	inhibition at 10 µM (TRPV1) [%]	CYP (% inhibition) @10 μM, 2D6 (CYP 2D6) [%]	antagonist activity in calcium influx assay (TRPM8)	inhibition at 1 µM (TRPV4) [%]	inhibition at 10 µM (TRPV4) [%]	remaining activity at 10 µM [2] [%]	remaining activity at 10 µM [3] [%]	remaining activity at 10 µM [4] [%]	remaining activity at 10 µM [5] [%]	remaining activity at 10 µM [6] [%]	remaining activity at 10 µM [7] [%]	remaining activity at 10 µM [8] [%]	remaining activity at 10 µM [9] [%]	remaining activity at 10 µM [10] [%]	remaining activity at 10 µM [11] [%]	remaining activity at 10 µM [12] [%]	remaining activity at 10 µM [13] [%]	remaining activity at 10 µM [14] [%]	further results
CCOC(=O)c1sc(-c2cccc(F)c2)nc1O [Compound 10, ethyl 2-(3-fluorophenyl)-4-hydroxy-1,3-thiazole-5-carboxylate]	0.833	1.2	2.3	<5	confirmed the antagonist activity	2	8.9	100	100	87	90	98	99.3	82	88	100	91	102	90	100	fraction unbound at 10 μM (Plasma Protein Binding [15]): 0.03; log D values (Log D): low; logD (Log D): 1.59; CYP (% inhibition) @10 μM, 3A4 (CYP 3A4): <5%; CYP (% inhibition) @10 μM, 2C9 (CYP 2C9): <5%; fraction unbound at 10 μM (Plasma Protein Binding [16]): 0.02
O=C(O)c1sc(-c2ccc(Cl)cc2)nc1OCc1ccc(Cl)cc1 [Compound 45, 4-[(4-chlorobenzyl)oxy]-2-(4-chlorophenyl)-1,3-thiazole-5-carboxylic acid]	4	3.1	6.3	<5	confirmed the antagonist activity	5.1	3.1	100	100	97.2	96	95	100	90.5	93	100	99.6	86.7	93.2	96	bioavailability ([1]; oral bioavailability): 60%; fraction unbound at 10 μM (Plasma Protein Binding [15]): 0.01; logD (Log D): 2.7; CYP (% inhibition) @10 μM, 3A4 (CYP 3A4): <5%; CYP (% inhibition) @10 μM, 2C9 (CYP 2C9): <5%; fraction unbound at 10 μM (Plasma Protein Binding [16]): 0.01
